# Measured values taken from patent publication US11213590B2, “SSTR-targeted conjugates and particles and formulations thereof” (priority 2016, dated 2022).
# Where two headings read alike, the source gives them in different places.
# Columns and labels:
# [1] = test system: NCI-H69; test: cells; assay type: cell-based, human; conditions: Homo sapiens, read-out: Proliferation Inhibition IC50 of DM1
# Experimental: (§1) The purpose of this study was to determine the receptor-dependent inhibition of proliferation in vitro by the somatostatin targeting conjugate Conjugate 57 and determine the sensitivity to DM1 in the human SSTR2 expressing cancer cell lines: NCI-H69, NCI-H82, NCI-H727 and HCC-33. Cells were incubated with Conjugate 57 for 6 hours, in the presence or absence of an excess of octreotide, a somatostatin analogue. A three-fold serial dilution of Conjugate 57 was used for a total of ten concentration points. After treatment, cells were washed, incubated for an additional period of time, either 72 or 96 hours and proliferation was measured using the CellTiter-Glo® Luminescent Cell Viability Assay. The IC50 of Conjugate 57 was used to determine the inhibiting activity in proliferation assays. To determine DM1 sensitivity a similar method to the Conjugate 57 assay was employed with the additional incubation time points of 30 minutes, 1, 2, and 4 hours and the exclusion of the pre-treatment with octreotide. DM1 effect from the most to least sensitive cell line was determined to be: NCI-H69>HCC-33>NCI-H82>NCI-H727 (Table 5B). […] The addition of excess octreotide (100 μM) competes with Conjugate 57 for binding to the SSTR2 receptor. […] In the NCI-H69 experiments, pre-incubation with an excess of octreotide modestly diminished the activity of Conjugate 57 by 1.6 and 2.4 fold, depending on the assay conditions. In the HCC-33 cell line, activity of Conjugate 57 was 3.2 (±1.4) times higher when dosed alone, compared to when the cells were pre-incubated with octreotide. The small but measureable changes in Conjugate 57 activity in the presence of excess octreotide seen in the NCI-H69 and HCC-33 cell lines supports the receptor dependence of the Conjugate 57 antiproliferative effect seen in vitro. In summary, although all the cell lines tested in these experiments express the SSTR2 protein, they have different levels of sensitivity to the Conjugate 57 conjugate of which the DM1 sensitivity may be a contributing factor.
# [2] = test system: NCI-H727; test: cells; assay type: cell-based, human; conditions: Homo sapiens, read-out: Proliferation Inhibition IC50 of DM1
# Experimental: as §1
# [3] = test system: NCI-H82; test: cells; assay type: cell-based, human; conditions: Homo sapiens, read-out: Proliferation Inhibition IC50 of DM1
# Experimental: as §1
# [4] = test system: HCC-33; test: Inhibition of proliferation, CellTiter-Glo, HCC-33; assay type: cell-based, human; conditions: Homo sapiens, HCC33, 6 h incubation, n = 3, read-out: Proliferation Inhibition IC50 of DM1
# Experimental: as §1
# [5] = target: CYP3A4 (Homo sapiens, UniProt P08684); conditions: KADCYLA package insert; to a lesser extent by CYP3A5; cited from earlier work
# CYP3A4, sequence (P08684 whole entry): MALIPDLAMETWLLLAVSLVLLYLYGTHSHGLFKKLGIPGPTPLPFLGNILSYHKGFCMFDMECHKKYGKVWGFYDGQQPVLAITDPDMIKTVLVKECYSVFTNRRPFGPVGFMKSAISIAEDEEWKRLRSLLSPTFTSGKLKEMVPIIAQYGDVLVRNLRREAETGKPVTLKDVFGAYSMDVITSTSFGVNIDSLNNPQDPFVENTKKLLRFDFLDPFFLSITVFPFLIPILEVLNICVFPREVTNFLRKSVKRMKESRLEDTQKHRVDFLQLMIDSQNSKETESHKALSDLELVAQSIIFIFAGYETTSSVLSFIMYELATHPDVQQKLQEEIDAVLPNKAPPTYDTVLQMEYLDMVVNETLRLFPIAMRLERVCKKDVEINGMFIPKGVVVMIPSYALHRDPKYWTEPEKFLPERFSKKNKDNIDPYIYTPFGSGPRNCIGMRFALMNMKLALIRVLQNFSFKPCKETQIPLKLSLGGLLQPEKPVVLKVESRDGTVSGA
# [6] = test system: NCI-H69 xenograft; test: NCI-H69 lung xenograft efficacy, formulations and schedules; assay type: in vivo, mice; conditions: cisplatin iv 5.0 mg/kg 1x/week combined with etoposide ip 8.0 mg/kg 3x/week over two weeks (SOC); Day 21
# Experimental: A further NCI-H69 study design included Conjugate 57 dosed iv at 1.0 mg/kg formulated in propylene glycol (PG), 1.0 mg/kg formulated in Solutol HS15, 0.5 mg/kg formulated in Solutol HS15 dosed twice per week, and 0.33 mg/kg formulated in Solutol HS15 dosed three times per week. A comparator group was dosed with SOC cisplatin dosed iv at 5.0 mg/kg once per week/etoposide dosed ip at 8.0 mg/kg three times per week over two weeks. A negative control vehicle was dosed with the Solutol HS 15 vehicle. All groups contained 10 animals.
# [7] = cited from earlier work
smiles,measurement,setting,value
"COc1cc2cc(c1Cl)N(C)C(=O)C[C@H](OC(=O)[C@H](C)N(C)C(=O)CCS)C1(C)O[C@H]1[C@H](C)[C@@H]1C[C@@](O)(NC(=O)O1)[C@H](OC)/C=C/C=C(\C)C2 (stereo partly drawn) [DM1, mertansine (DM1), reference compound]",IC50,"[1]; 0.5 h, 30 min incubation",15 nM
same,IC50,[1]; 1 h incubation,8 nM
same,IC50,[1]; 2 h incubation,14 nM
same,IC50,[1]; 4 h incubation,11 nM
same,IC50,[1]; 6 h incubation,6 nM
same,IC50,"[2]; 0.5 h, 30 min incubation",1160 nM
same,IC50,[2]; 1 h incubation,665 nM
same,IC50,[2]; 2 h incubation,474 nM
same,IC50,[2]; 4 h incubation,380 nM
same,IC50,[2]; 6 h incubation,534 nM
same,IC50,"[3]; 0.5 h, 30 min incubation",171 nM
same,IC50,[3]; 1 h incubation,232 nM
same,IC50,[3]; 2 h incubation,183 nM
same,IC50,[3]; 4 h incubation,188 nM
same,IC50,[3]; 6 h incubation,56 nM
same,IC50,[4],34 nM
same,metabolizing enzymes in vitro,[5],metabolized in vitro mainly by CYP3A4
"N.N.[Cl][Pt][Cl] [Cisplatin, reference compound]",MTV (Mean Tumor Volume),[6],229 mm3
same,TGI (Tumor Growth Inhibition),[6],84%
"C[C@@H](O)[C@@H]1NC(=O)[C@H](CCCCN)NC(=O)[C@@H](Cc2c[nH]c3ccccc23)NC(=O)[C@H](Cc2ccccc2)NC(=O)[C@@H](NC(=O)[C@@H](Cc2ccccc2)NC(=O)CN(CCN(CCN(CC(=O)O)CC(=O)O)CC(=O)O)CC(=O)O)CSSC[C@@H](C(=O)N[C@H](CO)[C@@H](C)O)NC1=O [^111In pentetreotide, metal not drawn]",hormonal effect relative to octreotide,[7]; according to the manufacturer,1/10
same,"adverse reactions, frequency","[7]; human, in vivo",< 1%
